One may read the MIC as the smallest concentration in the dilution series that meets the test's criterion for growth inhibition.

Converted amounts (≈) assume the structure as drawn. Read-outs that look alike come from different tables or passages of the source.

Holding throughout (assay): minimum inhibition concentration (MIC)
What all share (assay type): cell-based

The test system of one test is Sh. dysenteriae JS 11910. As to conditions: Shigella dysenteriae, JS11910. The source says:
(§1) Regarding the antimicrobial activity of the tylosin derivatives of this invention shown by formula I, the minimum inhibition concentration (MIC) is shown in Table I.

The test system of another test is E. coli NIHJ. The conditions noted are these: Escherichia coli.
Excerpt: as §1

The next test concerns Ataph. aureus MS 9861.
Excerpt: as §1

Another test concerns Staph. aureus 209 P. As to conditions: Staphylococcus aureus.
Excerpt: as §1

For the next test, the system named is Staph. aureus MS 10225. As to conditions: Staphylococcus aureus, MS10225.
Excerpt: as §1

The subject of another test is Kleb. pneumoniae PCI 602. The conditions noted are these: Klebsiella pneumoniae, PCI602.
Excerpt: as §1

In another test the test system is Sal. enteritidis 1891. The conditions noted are these: Salmonella enterica.
Excerpt: as §1

Another test has as its system B. subtilis NRRL B-558. The conditions noted are these: Bacillus subtilis, NRRLB558.
Excerpt: as §1

The mark [1] stands for this setting: Kleb. pneumoniae PCI 602, read-out: MIC.
[2] abbreviates: Sal. enteritidis 1891, read-out: MIC.
[3] abbreviates: B. subtilis NRRL B-558, read-out: MIC.
[4] abbreviates: Staph. aureus 209 P, read-out: MIC.

As to `CCC1OC(=O)CC(O)C(C)C(OC2OC(C)CC(N(C)C)C2O)C(CC=O)CC(C)C(=O)C=CC(C)=CC1CO` (centres unmarked) [Example 2, 4'-deoxy mycaminosyl tylonolide], the MIC was below 0.2 µg/mL in the test with Sh. dysenteriae JS 11910; 3.12 µg/mL (≈ 5.36 µM) against E. coli NIHJ; 3.12 µg/mL (≈ 5.36 µM) in the test on Ataph. aureus MS 9861; 0.2 µg/mL (≈ 0.344 µM) against Staph. aureus 209 P (209P); 3.12 µg/mL (≈ 5.36 µM) against Staph. aureus MS 10225; 0.78 µg/mL (≈ 1.34 µM) in the test with Kleb. pneumoniae PCI 602 (setting [1]). Besides, the MIC in the test with Sal. enteritidis 1891 (setting [2]) and with B. subtilis NRRL B-558 (setting [3]) was 0.78 µg/mL (≈ 1.34 µM) throughout.

`CCC1OC(=O)CC(O)C(C)C(OC2OC(C)CC(N(C)C)C2O)C(CC=O)CC(C)C(=O)C=CC(C)=CC1COC(C)=O` (centres unmarked) [Example 9, 23-O-acetyl-4'-deoxy mycaminosyl tylonolide]: the MIC amounted to 0.78 µg/mL (≈ 1.25 µM) in the test on Sh. dysenteriae JS 11910; 6.25 µg/mL (≈ 10 µM) against E. coli NIHJ; 1.56 µg/mL (≈ 2.5 µM) in the test with Ataph. aureus MS 9861; 0.2 µg/mL (≈ 0.321 µM) in the test with Staph. aureus 209 P (209P); 0.78 µg/mL (≈ 1.25 µM) against Staph. aureus MS 10225; 6.25 µg/mL (≈ 10 µM) in the test with Kleb. pneumoniae PCI 602 (setting [1]). The values for the minimum inhibitory concentration (MIC) against Sal. enteritidis 1891 (ENTERITIDIS) and with B. subtilis NRRL B-558 were 1.56 µg/mL (≈ 2.5 µM) and 0.39 µg/mL (≈ 0.625 µM), respectively.

As to `CCC(=O)OCC1C=C(C)C=CC(=O)C(C)CC(CC=O)C(OC2OC(C)CC(N(C)C)C2O)C(C)C(O)CC(=O)OC1CC` (centres unmarked) [Example 10, 23-O-propionyl-4'-deoxy mycaminosyl tylonolide], the minimum inhibitory concentration (MIC) in the test with Sh. dysenteriae JS 11910 came out at 0.2 µg/mL (≈ 0.314 µM); in the test with E. coli NIHJ (E. coli NIHJ, read-out: MIC), 6.25 µg/mL (≈ 9.8 µM); with Ataph. aureus MS 9861, 3.12 µg/mL (≈ 4.89 µM); with Staph. aureus 209 P (setting [4]), 0.2 µg/mL (≈ 0.314 µM); in the test on Staph. aureus MS 10225, 0.2 µg/mL (≈ 0.314 µM); in the test on Kleb. pneumoniae PCI 602, 1.56 µg/mL (≈ 2.45 µM). For the same molecule, the MIC in the test with Sal. enteritidis 1891 (setting [2]) was 0.78 µg/mL (≈ 1.22 µM); against B. subtilis NRRL B-558, below 0.2 µg/mL.

With `CCC1OC(=O)CC(O)C(C)C(OC2OC(C)CC(N(C)C)C2O)C(CC=O)CC(C)C(=O)C=CC(C)=CC1COC1CCCS1` (centres unmarked) [Example 18, 23-O-tetrahydrothiofuranyl-4'-deoxy mycaminosyl tylonolide], the minimum inhibitory concentration (MIC) in the test on Sh. dysenteriae JS 11910 is 0.39 µg/mL (≈ 0.584 µM); with E. coli NIHJ (E. coli NIHJ, read-out: MIC), 6.25 µg/mL (≈ 9.36 µM); against Ataph. aureus MS 9861, 0.2 µg/mL (≈ 0.299 µM); in the test on Staph. aureus 209 P (setting [4]), below 0.2 µg/mL; with Staph. aureus MS 10225, 0.2 µg/mL (≈ 0.299 µM); with Kleb. pneumoniae PCI 602 (setting [1]), 1.56 µg/mL (≈ 2.34 µM). The MIC in the test with Sal. enteritidis 1891 (setting [2]) was 1.56 µg/mL (≈ 2.34 µM); with B. subtilis NRRL B-558, below 0.2 µg/mL.

With `CCC1OC(=O)CC(O)C(C)C(OC2OC(C)CC(N(C)C)C2O)C(CC=O)CC(C)C(=O)C=CC(C)=CC1COC1CCCCS1` (centres unmarked) [Example 19, 23-O-tetrahydrothiopyranyl-4'-deoxy mycaminosyl tylonolide], the minimum inhibitory concentration (MIC) was 0.39 µg/mL (≈ 0.572 µM) in the test with Sh. dysenteriae JS 11910; 25 µg/mL (≈ 36.7 µM) in the test on E. coli NIHJ (E. coli NIHJ, read-out: MIC); below 0.2 µg/mL in the test on Ataph. aureus MS 9861; below 0.2 µg/mL in the test with Staph. aureus 209 P (setting [4]); below 0.2 µg/mL in the test with Staph. aureus MS 10225; 3.12 µg/mL (≈ 4.58 µM) against Kleb. pneumoniae PCI 602. Moreover, the minimal inhibitory concentration (MIC) with Sal. enteritidis 1891 (setting [2]) is 1.56 µg/mL (≈ 2.29 µM); with B. subtilis NRRL B-558, below 0.2 µg/mL.

For the molecule `CCC1OC(=O)CC(O)C(C)C(OC2OC(C)CC(N(C)C)C2O)C(CC=O)CC(C)C(=O)C=CC(C)=CC1COCSC` (centres unmarked) [Example 20, 23-O-methylthiomethyl-4'-deoxy mycaminosyl tylonolide], the MIC was 0.78 µg/mL (≈ 1.22 µM) in the test on Sh. dysenteriae JS 11910; 6.25 µg/mL (≈ 9.74 µM) in the test on E. coli NIHJ (E. coli NIHJ, read-out: MIC); 3.12 µg/mL (≈ 4.86 µM) with Ataph. aureus MS 9861; below 0.2 µg/mL in the test with Staph. aureus 209 P (setting [4]); 0.78 µg/mL (≈ 1.22 µM) in the test on Staph. aureus MS 10225; 1.56 µg/mL (≈ 2.43 µM) in the test with Kleb. pneumoniae PCI 602 (setting [1]). In addition, the figures for the MIC in the test on Sal. enteritidis 1891 (setting [2]) and with B. subtilis NRRL B-558 (setting [3]) were 0.78 µg/mL (≈ 1.22 µM) and below 0.2 µg/mL, respectively.

With `CCC1OC(=O)CC(O)C(C)C(OC2OC(C)CC(N(C)C)C2O)C(CC=O)CC(C)C(=O)C=CC(C)=CC1CCl` (centres unmarked) [Example 21, 23-chloro-23,4'-dideoxy mycaminosyl tylonolide], the minimum inhibitory concentration (MIC) was found to be 0.39 µg/mL (≈ 0.65 µM) with Sh. dysenteriae JS 11910; 6.25 µg/mL (≈ 10.4 µM) in the test with E. coli NIHJ (E. coli NIHJ, read-out: MIC); 6.25 µg/mL (≈ 10.4 µM) with Ataph. aureus MS 9861; 0.78 µg/mL (≈ 1.3 µM) in the test with Staph. aureus 209 P (setting [4]); 6.25 µg/mL (≈ 10.4 µM) against Staph. aureus MS 10225; 1.56 µg/mL (≈ 2.6 µM) with Kleb. pneumoniae PCI 602 (setting [1]). Further, the MIC in the test with Sal. enteritidis 1891 (setting [2]) stood at 0.39 µg/mL (≈ 0.65 µM); in the test with B. subtilis NRRL B-558 (setting [3]), 0.2 µg/mL (≈ 0.333 µM).

Consider `CCC1OC(=O)CC(O)C(C)C(OC2OC(C)CC(N(C)C)C2O)C(CC=O)CC(C)C(=O)C=CC(C)=CC1CSc1ccccn1` (centres unmarked) [Example 27, 23,4'-dideoxy-23-(pyridine-2-ylthio) mycaminosyl tylonolide], for which the MIC with Sh. dysenteriae JS 11910 was 0.2 µg/mL (≈ 0.296 µM); in the test on E. coli NIHJ it was 12.5 µg/mL (≈ 18.5 µM); in the test on Ataph. aureus MS 9861, 0.78 µg/mL (≈ 1.16 µM); in the test on Staph. aureus 209 P (setting [4]), below 0.2 µg/mL; in the test on Staph. aureus MS 10225 it was 0.39 µg/mL (≈ 0.578 µM); with Kleb. pneumoniae PCI 602 (setting [1]), 1.56 µg/mL (≈ 2.31 µM). Moreover, the MIC was 0.78 µg/mL (≈ 1.16 µM) in the test on Sal. enteritidis 1891 (setting [2]) and below 0.2 µg/mL in the test with B. subtilis NRRL B-558 (setting [3]).

`CC[C@H]1OC(=O)C[C@@H](O)[C@H](C)[C@@H](O[C@@H]2O[C@H](C)[C@@H](O[C@H]3C[C@@](C)(O)[C@@H](O)[C@H](C)O3)[C@H](N(C)C)[C@H]2O)[C@@H](CC=O)C[C@@H](C)C(=O)/C=C/C(C)=C/[C@@H]1CO[C@@H]1O[C@H](C)[C@@H](O)[C@@H](OC)[C@H]1OC` [Tylosin]: the MIC came out at 12.5 µg/mL (≈ 13.6 µM) against Sh. dysenteriae JS 11910; 100 µg/mL (≈ 109 µM) against E. coli NIHJ; 6.25 µg/mL (≈ 6.82 µM) in the test on Ataph. aureus MS 9861; 0.39 µg/mL (≈ 0.426 µM) in the test on Staph. aureus 209 P (209P); 3.12 µg/mL (≈ 3.41 µM) with Staph. aureus MS 10225; 25 µg/mL (≈ 27.3 µM) in the test on Kleb. pneumoniae PCI 602 (setting [1]). For the same molecule, the minimal inhibitory concentration (MIC) in the test with Sal. enteritidis 1891 (setting [2]) came out at 25 µg/mL (≈ 27.3 µM).

The values above are taken from patent US4438109A, “Tylosin derivatives” (Zaidan Hojin Biseibutsu Kagaku Kenkyu Kai, priority 1980, dated 1984).
